The values that follow come from patent US12564580B2, “Mitochondria-targeted isoketal/isolevuglandin scavengers and uses thereof” (Vanderbilt University, priority 2020, dated 2026).

Assay [1] concerns the target complex II (Mus musculus, UniProt Q8K2B3+Q9CQA3+Q9CXV1+Q9CZB0). Briefly: Complex II activity in mouse kidney mitochondrial lysate. The format is biochemical. Conditions: mitochondrial lysates treated with a bolus of IsoLG.
Assay [2] deals with Intact mouse kidney mitochondria, complex II respiration. Briefly: Respiration of isolated kidney mitochondria with complex II substrate succinate after acute IsoLG/IsoLG-PE treatment. The format is biochemical. The following applies: acute addition of a low dose (0.5 μM printed elsewhere in the source). As for the experimental part: FIGS. 1A-1C show acute treatment with IsoLG or IsoLG-PE impairs mitochondrial respiration. (A) Intact mouse kidney mitochondria were incubated (5 min) with ethanol as vehicle (Sham), IsoLG (20 μM) or IsoLG-PE (20 μM) and then diluted with respiration buffer 20-fold prior to addition of Glutamate and Malate, ADP (50 μM) and measurements of oxygen consumption in State III. *P<0.001 vs Sham, **P<0.03 vs IsoLG. (B) Oxygen consumption in the presence of complex I substrates Glutamate+Malate and ADP (State III) and Respiratory Control Ratio (State III/State IV, %) in intact kidney mitochondria treated with vehicle, IsoLG (1.5 μM) or IsoLG-PE (1.5 μM) in the respiration chamber. (C) State III respiration and Respiratory Control Ratio (State III/State IV, %) in presence of complex II substrate Succinate and ADP following addition of vehicle, IsoLG (1.5 μM) or IsoLG-PE (1.5 μM) in the respiration chamber.
Complex I is a key component of mitochondrial oxidative phosphorylation. Inactivation of complex I can lead to reduced ATP production and tissue damage. Addition of IsoLG to cells produces both protein—adducts and IsoLG-phosphatidylethanolamine adducts (IsoLG-PE) which can independently contribute to mitochondrial dysfunction. The present inventors tested whether IsoLG or IsoLG-PE could contribute to mitochondrial dysfunction. […]

Another assay concerns complex I. The assay can be described thus: Complex I activity in mouse kidney mitochondrial lysate. The following applies: mitochondrial lysates treated with a bolus of IsoLG.
For assay [3], the system named is Intact mouse kidney mitochondria, complex I-mediated respiration. Briefly: Respiration of isolated kidney mitochondria with complex I substrates glutamate+malate after acute IsoLG/IsoLG-PE treatment. The format is biochemical.
Assay [4] concerns C57Bl/6J mice, Ang II-induced hypertension. The assay can be described thus: Blood pressure in angiotensin II model of hypertension (tail-cuff and telemetry). It is filed as in vivo, mouse. The following applies: same molar dose of untargeted 2HOBA (0.17 mmol/L) in drinking water. From the text:
FIGS. 10A-D show the effect of mito2HOBA on angiotensin II-induced hypertension and accumulation of mitochondrial isoLGs protein adducts. (A) Blood pressure tail-cuff measurements in male Sham or angiotensin II-infused mice supplied with mito2HOBA in drinking water (0.1 g/L) or equimolar amount of untargeted analog 2HOBA (0.17 mmol/L). (B) Telemetry studies of blood pressure in angiotensin II-infused mice supplied with mito2HOBA or plain water as a vehicle. (C) Representative LC/MS/MS chromatograms of isoLG-Lysyl-Lactam adduct; (D) isoLG-Lys-Lactam levels in kidney mitochondria isolated from Sham or angiotensin II-infused mice supplied with mito2HOBA. Results are mean±SEM. *P<0.01 vs Sham, **P<0.01 vs Ang II (n=8).
Hypertension was induced by angiotensin II ([…]) as described previously. To test the therapeutic potential of scavenging of mitochondrial isoLGs, wild-type C57B1/6J male and female mice (Jackson Labs) received saline or angiotensin II minipump placement, and provided with the plain water (vehicle) or mito2HOBA in the drinking water (0.1 g/liter). Blood pressure was monitored by the telemetry and tail-cuff measurements as previously described. The Vanderbilt Institutional Animal Care and Use Committee approved the procedures (Protocol M1700207). Simple randomization was used to select animals for sham, angiotensin II or mito2HOBA groups for equal chance of being allocated to treatment groups.
To test a functional role of mitochondrial isoLGs in hypertension, we used an Ang II model of hypertension, and monitored blood pressure by tail-cuff (FIG. 10A) and telemetry (FIG. 10B). […] Infusion of wild-type C57B1/6J mice with Ang II (0.7 mg/kg/day) increased systolic blood pressure to 162 mm Hg.

The subject of assay [5] is human aortic endothelial cells (HAEC). Briefly: Mitochondrial superoxide in human aortic endothelial cells stimulated with angiotensin II plus TNFα (mitoSOX HPLC). The format is cell-based. As for the experimental part:
FIGS. 9A and B show the effect of mito2HOBA on mitochondrial superoxide and cardiolipin oxidation in human aortic endothelial cells induced by angiotensin II plus TNFα. (A) Mitochondrial superoxide was measured by HPLC analysis of mitoSOX-superoxide specific product, mito-2-hydroxyethidium (Mito-2OH-Et+). […] (B) Cardiolipin oxidation induced by Angiotensin II+TNFα measured my LC/MS. […] Data are mean±SEM. *P<0.01 vs Control, **P<0.01 vs Angiotensin II+TNFα (n=4).
Human aortic endothelial cells (HAEC) were purchased from Lonza (Chicago, IL) and cultured in EGM-2 medium supplemented with 2% FBS but without antibiotics. On the day before the study, the FBS concentration was reduced to 1%.
We tested if mito2HOBA reduces mitochondrial oxidative stress in human aortic endothelial cells (HAEC) stimulated with angiotensin II plus TNFα for 4-hours (FIG. 9). Indeed, supplementation of HAEC with mito2HOBA (50 nM) reduced mitochondrial superoxide production stimulated by TNF[…] and Ang II as measured by accumulation of specific superoxide-MitoSOX product, 2-OH-Mito-Ethidium.

The target in assay [6] is complex II (Mus musculus, UniProt Q8K2B3). The assay can be described thus: Glutamate-driven respiration of kidney mitochondria with Complex II inhibitor malonate. Conditions: malonate 5 mM, Glutamate+Malate.
complex II (Mus musculus, UniProt Q8K2B3), sequence (Q8K2B3 43-664): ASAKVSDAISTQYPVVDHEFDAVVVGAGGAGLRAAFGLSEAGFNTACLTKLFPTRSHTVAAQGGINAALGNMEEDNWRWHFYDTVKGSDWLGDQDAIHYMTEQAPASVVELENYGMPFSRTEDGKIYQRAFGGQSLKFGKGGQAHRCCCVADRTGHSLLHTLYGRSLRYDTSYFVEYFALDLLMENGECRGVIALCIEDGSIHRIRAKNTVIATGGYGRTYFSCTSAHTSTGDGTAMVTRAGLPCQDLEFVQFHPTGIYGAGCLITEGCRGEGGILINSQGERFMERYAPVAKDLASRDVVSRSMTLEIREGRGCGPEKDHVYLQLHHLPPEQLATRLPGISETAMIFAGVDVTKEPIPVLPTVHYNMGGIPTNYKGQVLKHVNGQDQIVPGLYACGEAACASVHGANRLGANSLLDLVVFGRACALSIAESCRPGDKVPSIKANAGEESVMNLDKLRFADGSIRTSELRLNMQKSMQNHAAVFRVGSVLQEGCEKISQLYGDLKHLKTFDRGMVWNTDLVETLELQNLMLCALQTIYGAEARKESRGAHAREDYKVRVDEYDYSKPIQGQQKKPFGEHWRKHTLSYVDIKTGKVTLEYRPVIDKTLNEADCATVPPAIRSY
complex II (Mus musculus, UniProt Q8K2B3), sequence (Q9CQA3 31-282 partner): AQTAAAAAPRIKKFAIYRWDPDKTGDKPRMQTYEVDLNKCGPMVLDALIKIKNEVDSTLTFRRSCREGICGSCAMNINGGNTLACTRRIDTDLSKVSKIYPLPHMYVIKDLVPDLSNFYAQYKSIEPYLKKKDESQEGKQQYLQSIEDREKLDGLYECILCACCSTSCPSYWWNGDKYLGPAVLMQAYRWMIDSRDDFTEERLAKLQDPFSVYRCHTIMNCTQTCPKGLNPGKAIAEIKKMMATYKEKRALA
complex II (Mus musculus, UniProt Q8K2B3), sequence (Q9CZB0 30-169 partner): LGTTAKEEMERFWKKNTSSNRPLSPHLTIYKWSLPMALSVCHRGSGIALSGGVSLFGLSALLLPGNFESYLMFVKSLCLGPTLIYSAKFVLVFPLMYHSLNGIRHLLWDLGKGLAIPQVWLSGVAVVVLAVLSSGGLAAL
complex II (Mus musculus, UniProt Q8K2B3), sequence (Q9CXV1 57-159 partner): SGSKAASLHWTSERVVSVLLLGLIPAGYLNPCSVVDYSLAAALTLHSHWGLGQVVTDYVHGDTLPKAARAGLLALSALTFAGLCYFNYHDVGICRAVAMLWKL
Method: To study the mitochondrial function, the combination of glutamate and malate (GM) or succinate was used as substrates. Since glutamate can be converted via transamination to α-ketoglutarate and further to succinate, the present inventors used complex II inhibitor malonate to define specific complex I respiration. The basal respiration (1) was measured in mitochondria supplemented with respiratory substrates. Then ADP was added to measure the coupled respiration (2). The proton leak (3) was determined after addition of complex V inhibitor oligomycin A. The uncoupled respiration (4) was measured after supplementation with CCCP. Finally, antimycin A plus rotenone were added to assess non-mitochondrial respiration (5) as described previously [32].
Mitochondria were isolated from 12-14-week-old male C57BL6/6J mouse kidneys. For respiration studies, electrons were entered at either complex I (glutamate+malate as substrate) or complex II (succinate as substrate). […] Since kidney mitochondria are much less studied than mitochondria from other organs, the present inventors used the specific inhibitor of Complex II malonate (5 mM) to evaluate the alternative pathways for glutamate oxidation. The Complex II mediated respiration was defined as malonate-inhibited oxygen consumption while Complex I specific respiration was defined as malonate resistant oxygen consumption. […]

complex II (Mus musculus, UniProt Q8K2B3+Q9CQA3+Q9CXV1+Q9CZB0), sequence (Q8K2B3 43-664): as the sequence (Q8K2B3 43-664) above
complex II (Mus musculus, UniProt Q8K2B3+Q9CQA3+Q9CXV1+Q9CZB0), sequence (Q9CQA3 31-282): as the sequence (Q9CQA3 31-282 partner) above
complex II (Mus musculus, UniProt Q8K2B3+Q9CQA3+Q9CXV1+Q9CZB0), sequence (Q9CZB0 30-169): as the sequence (Q9CZB0 30-169 partner) above
complex II (Mus musculus, UniProt Q8K2B3+Q9CQA3+Q9CXV1+Q9CZB0), sequence (Q9CXV1 57-159): as the sequence (Q9CXV1 57-159 partner) above

As for 15-E2-isolevuglandin [15-E2-IsoLG], the “complex II activity inhibited” value at complex II [1] was 21%. In assay [2], the “complex II respiration” value is “much less affected”. Also, the “complex I inactivation” value in the assay on complex I amounted to 74%. In addition, the “inhibition of state 3 respiration” value in assay [3] (20 μM, five-minute treatment of isolated mitochondria, complex I substrates glutamate+malate) was 74%. Also, the “complex I-mediated respiration” value in assay [3] (acute addition of a low dose (0.5 μM printed elsewhere in the source), intact mitochondria) is listed as “significantly attenuated”.
In the case of `NCc1ccccc1O` [2HOBA, 2-hydroxybenzylamine], the “Ang II-induced hypertension” value in assay [4] is “did not attenuate”. The mitochondrial superoxide production result in assay [5] (50 nM, angiotensin II plus TNFα for 4-hours) is “did not affect”. In addition, the mitochondrial superoxide overproduction entry in assay [5] (cultured HAEC, concentration not stated (discussion)) is “partially attenuates”.
Consider `NCc1ccc(O)cc1` [4HOBA, 4-hydroxybenzylamine], for which the “mitochondrial superoxide (mitochondrial oxidative stress)” value in assay [5] (4HOBA high dose 10 μM, angiotensin II plus TNFα) is given as “did not protect”.
Take `O=C(O)CC(=O)O` [Malonate, malonate]: at complex II [6], the “inhibition of glutamate-driven respiration” value amounted to 58%.
